Test: Effect of the spilanthol amount in a chewing gum formulation (taste, mouth moistening)
Type: in vivo
Details: below 75 ppm in a chewing gum formulation

Question: Which “effectiveness for mouth-moistening purposes” value does the source give for `C/C=C/C=C\CC/C=C/C(=O)NCC(C)C` [spilanthol, N-isobutyl-2E,6Z,8E-decatrienamide] here?
Answer: The value was “insufficient”.

Source: patent US20130216649A1, “MOUTH-MOISTENING GUM COMPOSITIONS AND PRODUCTS CONTAINING THE SAME” (Kraft Foods Global Brands LLC, priority 2010, published 2013)
